pEC50: −log10 of the molar value. Activity calls are given as the source filed them. No cut-off for these calls is given here.
test system: not listed separately; experiment: Induction of mitochondrial uncoupled respiration in rat L6 myoblasts assessed as increase in oxygen consumption rate at 10 uM measured by Agilent Seahorse XF analyzer; format: functional

| SMILES | Activity [%] |
| --- | --- |
| Fc1cccc(Nc2nc3[nH]c(C(F)(F)F)nc3nc2Nc2ccccc2F)c1 | 100 |
| Fc1c(Nc2nc3nc(C(F)(F)F)[nH]c3nc2Nc2cccc(C(F)(F)F)c2F)cccc1C(F)(F)F | >150 |
| Fc1ccccc1Nc1nc2nc(C(F)(F)F)[nH]c2nc1Nc1ccccc1F | 50 |
| FC(F)(F)c1nc2nc(Nc3ccccc3C(F)(F)F)c(Nc3ccccc3C(F)(F)F)nc2[nH]1 | >150 |
| Cn1c(C(F)(F)F)nc2nc(Nc3cc(C(F)(F)F)cc(C(F)(F)F)c3)c(Nc3cc(C(F)(F)F)cc(C(F)(F)F)c3)nc21 | 100 |
| Fc1cccc(Nc2nc3nc(C(F)(F)F)[nH]c3nc2Nc2cccc(F)c2F)c1F | >150 |
| Fc1ccc(C(F)(F)F)cc1Nc1nc2nc(C(F)(F)F)[nH]c2nc1Nc1cc(C(F)(F)F)ccc1F | 100 |

test system: not listed separately; experiment: Induction of mitochondrial uncoupled respiration in rat L6 myoblasts assessed as increase in oxygen consumption rate measured by Agilent Seahorse XF analyzer; format: functional, cell-based

| SMILES | pEC50 |
| --- | --- |
| Oc1nc2nonc2nc1Nc1ccc(OC(F)(F)F)cc1 | 5.37 |

test system: L6; experiment: (§1) Induction of mitochondrial uncoupled respiration in rat L6 myoblasts assessed as increase in oxygen consumption rate at 50 uM measured by Agilent Seahorse XF analyzer; format: functional

| SMILES | Activity |
| --- | --- |
| Cc1ccc(Nc2nc3nc(C(F)(F)F)[nH]c3nc2Nc2ccc(C)cc2)cc1 | Active |
| FC(F)(F)c1nc2nc(Nc3ccccc3)c(Nc3ccccc3)nc2[nH]1 | Active |

test system: not listed separately; experiment: as §1; format: functional

| SMILES | Activity [%] |
| --- | --- |
| Fc1cccc(Nc2nc3[nH]c(C(F)(F)F)nc3nc2Nc2ccccc2F)c1 | 150 |
| Fc1ccccc1Nc1nc2nc(C(F)(F)F)[nH]c2nc1Nc1ccccc1F | 150 |
| Cn1c(C(F)(F)F)nc2nc(Nc3cc(C(F)(F)F)ccc3F)c(Nc3cc(C(F)(F)F)ccc3F)nc21 | >200 |
| Fc1ccccc1Nc1nc2nc(C(F)(F)F)[nH]c2nc1Nc1ccccc1 | 50 |
| Cn1c(C(F)(F)F)nc2nc(Nc3cc(C(F)(F)F)cc(C(F)(F)F)c3)c(Nc3cc(C(F)(F)F)cc(C(F)(F)F)c3)nc21 | >300 |
| Cc1ccc(Nc2nc3[nH]c(C(F)(F)F)nc3nc2Nc2ccccc2F)cc1 | 50 |
| Fc1ccccc1Nc1nc2nc(C(F)(F)F)[nH]c2nc1NC1CCCCC1 | 125 |
| FC(F)(F)c1cc(Nc2nc3nc(C(F)(F)F)[nH]c3nc2Nc2cc(C(F)(F)F)cc(C(F)(F)F)c2)cc(C(F)(F)F)c1 | 100 |

Source: ChEMBL document CHEMBL5107991, “Conversion of oxadiazolo[3,4-b]pyrazines to imidazo[4,5-b]pyrazines via a tandem reduction-cyclization sequence generates new mitochondrial uncouplers” (Bioorg Med Chem Lett, 2022)
